{
  "source": "patent US12262716B2",
  "about": "“Herbicidal mixtures comprising L-glufosinate and their use in soybean cultures” (BASF SE, priority 2017, dated 2025)",
  "format_in_all_cases": "in vivo",
  "key": {"Cyperus iria": {"system": "Cyperus iria", "test": "Greenhouse pot test, post emergence treatment, herbicidal activity against CYPIR", "settings": "scale 0 to 100"}, "[1]": {"system": "Erigeron Canadensis, Conyza canadensis", "test": "Greenhouse pot test, post emergence treatment, herbicidal activity against ERICA", "settings": "L-Glufosinate 75 g ai/ha, scale 0 to 100"}, "Avena fatua": {"system": "Avena fatua", "test": "Greenhouse pot test, post emergence treatment, herbicidal activity against AVEFA", "settings": "scale 0 to 100", "description": "(§1) Synergism can be described as an interaction where the combined effect of two or more compounds is greater than the sum of the individual effects of each of the compounds. The presence of a synergistic effect in terms of percent control, between two mixing partners (X and Y) can be calculated using the Colby equation (Colby, S. R., 1967, Calculating Synergistic and Antagonistic Responses in Herbicide Combinations, Weeds, 15, 21-22):\n(§2) When the observed combined control effect is greater than the expected (calculated) combined control effect (E), then the combined effect is synergistic.\n(§3) However, the weed control afforded by the compounds, mixtures or compositions is not limited to these species. The analysis of synergism or antagonism between the mixtures or compositions was determined using Colby's equation.\n(§4) The culture containers used were plastic flowerpots containing loamy sand with approximately 3.0% of humus as the substrate. The seeds of the test plants were sown separately for each species and/or resistant biotype. For the pre-emergence treatment, the active ingredients, which had been suspended or emulsified in water, were applied directly after sowing by means of finely distributing nozzles. The containers were irrigated gently to promote germination and growth and subsequently covered with transparent plastic hoods until the plants had rooted. This cover caused uniform germination of the test plants, unless this had been impaired by the active ingredients. For the post-emergence treatment, the test plants were first grown to a height of 3 to 15 cm, depending on the plant habit, and only then treated with the active ingredients which had been suspended or emulsified in water. For this purpose, the test plants were either sown directly and grown in the same containers, or they were first grown separately as seedlings and transplanted into the test containers a few days prior to treatment. Depending on the species, the plants were kept at 10-25 ° C.or 20-35° C., respectively. The test period extended to 20 days after treatment. During this time, the plants were tended, and their response to the individual treatments was evaluated. The evaluation was carried out by using a scale from 0 to 100. 100 means no emergence of the plants or complete destruction of at least the above-ground parts, and 0 means no damage, or normal course of growth. Data shown are the mean of two replications. […]"}, "Echinochloa crus-galli": {"system": "Echinochloa crus-galli", "test": "Greenhouse pot test, post emergence treatment, herbicidal activity against ECHCG", "settings": "scale 0 to 100", "description": "as §1, §2, §3\nas §4, with “Depending on the species, the plants were kept at 10-25 ° C.or 20-35° C., respectively. The test period extended to 20 days after treatment.” left out, “evaluated.” for “evaluated. The evaluation was carried out by using a scale from 0 to 100. 100 means no emergence of the plants or complete destruction of at least the above-ground parts, and 0 means no damage, or normal course of growth. Data shown are the mean of two replications.”"}, "Abutilon theophrasti": {"system": "Abutilon theophrasti", "test": "Greenhouse pot test, post emergence treatment, herbicidal activity against ABUTH", "settings": "scale 0 to 100", "description": "as §1, §2, §3\nThe culture containers used were plastic flowerpots containing loamy sand with approximately 3.0% of humus as the substrate. The seeds of the test plants were sown separately for each species and/or resistant biotype. For the pre-emergence treatment, the active ingredients, which had been suspended or emulsified in water, were applied directly after sowing by means of finely distributing nozzles. The containers were irrigated gently to promote germination and growth and subsequently covered with transparent plastic hoods until the plants had rooted. This cover caused uniform germination of the test plants, unless this had been impaired by the active ingredients. For the post-emergence treatment, the test plants were first grown to a height of 3 to 15 cm, depending on the plant habit, and only then treated with the active ingredients which had been suspended or emulsified in water. For this purpose, the test plants were either sown directly and grown in the same containers, or they were first grown separately as seedlings and transplanted into the test containers a few days prior to treatment. Depending on the species, the plants were kept at 10-25 ° C.or 20-35° C., respectively. The test period extended to 20 days after treatment. During this time, the plants were tended, and their response to the individual treatments was evaluated. The evaluation was carried out by using a scale from 0 to 100. 100 means no emergence of the plants or complete destruction of at least the above-ground parts, and 0 means no damage, or normal course of growth. Data shown are the mean of two replications.\n• L-Glufosinate: 5% EC formulation • Saflufenacil: 342 g/l SC formulation • Compound II-89: 5% EC formulation (Compound II-89: ethyl [3-[2-chloro-4-fluoro-5-(1-methyl-6-trifluoromethyl-2,4-dioxo-1,2,3,4-tetrahydropyrimidin-3-yl)phenoxy]-2-pyridyloxy]acetate) • Trifludimoxazin: 500 g/l SC formulation • Pyroxasulfone: 85% WG formulation • Pethoxamid: 5% EC formulation • Sulfentrazone: 480 g/l SC formulation Weeds in the Study: […]"}},
  "data": [
    {"smiles": "CCOC(=O)COc1ncccc1Oc1cc(-n2c(=O)cc(C(F)(F)F)n(C)c2=O)c(F)cc1Cl", "note": "[Compound II-89, ethyl [3-[2-chloro-4-fluoro-5-(1-methyl-6-trifluoromethyl-2,4-dioxo-1,2,3,4-tetrahydropyrimidin-3-yl)phenoxy]-2-pyridyloxy]acetate]", "values": [
      {"measurement": "Herbicidal activity against CYPIR, Found", "setting": "Cyperus iria; Compound II-89 0.25 g ai/ha", "result": 0}
    ]},
    {"smiles": "CP(=O)(O)CC[C@H](N)C(=O)O", "note": "[L-Glufosinate, (2S)-2-amino-4-[hydroxy(methyl)phosphinoyl]butyric acid]", "values": [
      {"measurement": "Herbicidal activity against ERICA, Found", "setting": "[1]", "result": 90},
      {"measurement": "Herbicidal activity against AVEFA, Found", "setting": "Avena fatua; L-Glufosinate 75 g ai/ha", "result": 0},
      {"measurement": "Herbicidal activity against AVEFA, Found", "setting": "Avena fatua; L-Glufosinate 150 g ai/ha", "result": 0},
      {"measurement": "Herbicidal activity against ECHCG, Found", "setting": "Echinochloa crus-galli; L-Glufosinate 200 g ai/ha", "result": 0},
      {"measurement": "Herbicidal activity against ECHCG, Found", "setting": "Echinochloa crus-galli; L-Glufosinate 400 g ai/ha", "result": 65},
      {"measurement": "Herbicidal activity against ABUTH, Found", "setting": "Abutilon theophrasti; L-Glufosinate 75 g ai/ha", "result": 0},
      {"measurement": "Herbicidal activity against ABUTH, Found", "setting": "Abutilon theophrasti; L-Glufosinate 150 g ai/ha", "result": 55},
      {"measurement": "Herbicidal activity against ABUTH, Found", "setting": "Abutilon theophrasti; L-Glufosinate 200 g ai/ha", "result": 65},
      {"measurement": "Herbicidal activity against CYPIR, Found", "setting": "Cyperus iria; L-Glufosinate 200 g ai/ha", "result": 0}
    ]},
    {"smiles": "CCOCCN(C(=O)CCl)C(=C(C)C)c1ccccc1", "note": "[Pethoxamid, pethoxamid]", "values": [
      {"measurement": "Herbicidal activity against AVEFA, Found", "setting": "Avena fatua; Pethoxamid 50 g ai/ha", "result": 0},
      {"measurement": "Herbicidal activity against AVEFA, Found", "setting": "Avena fatua; Pethoxamid 100 g ai/ha", "result": 0},
      {"measurement": "Herbicidal activity against ABUTH, Found", "setting": "Abutilon theophrasti; Pethoxamid 50 g ai/ha", "result": 0},
      {"measurement": "Herbicidal activity against ABUTH, Found", "setting": "Abutilon theophrasti; Pethoxamid 100 g ai/ha", "result": 0}
    ]},
    {"smiles": "C#CCN1C(=O)C(F)(F)Oc2cc(F)c(-n3c(=O)n(C)c(=S)n(C)c3=O)cc21", "note": "[Trifludimoxazin, trifludimoxazin]", "values": [
      {"measurement": "Herbicidal activity against ECHCG, Found", "setting": "Echinochloa crus-galli; Trifludimoxazin 0.25 g ai/ha", "result": 10}
    ]}
  ]
}
